# Measured values: ChEMBL document CHEMBL3351789, “Triazolopyridines as selective JAK1 inhibitors: from hit identification to GLPG0634” (J Med Chem, 2014)
# pIC50: −log10 of the molar value.
# Legend:
# [1] = target: T1, Tyrosine-protein kinase JAK1 (Homo sapiens, UniProt P23458); assay: Inhibition of human recombinant JAK1; conditions: for pIC50: read-out: IC50
# Homo sapiens [2] = species: Homo sapiens; assay: Selectivity index, ratio of IC50 for human recombinant JAK2 to IC50 for human recombinant JAK1
# Homo sapiens [3] = species: Homo sapiens; assay: Selectivity index, ratio of IC50 for human recombinant JAK3 to IC50 for human recombinant JAK1
# [4] = target: T1, Tyrosine-protein kinase JAK1; assay: Inhibition of JAK1 in human whole blood assessed as inhibition of IL-6-induced pSTAT1
# Homo sapiens [5] = species: Homo sapiens; assay: Selectivity index, ratio of IC50 for human recombinant TYK2 to IC50 for human recombinant JAK1
# [6] = Kinetic solubility of the compound at pH 7.4; conditions: buffer
# [7] = target: Tyrosine-protein kinase JAK2 (Homo sapiens, UniProt O60674); assay: Inhibition of JAK2 in human whole blood assessed as inhibition of GM-CSF-induced pSTAT5
# [8] = Metabolic stability in rat liver microsomes assessed as compound remaining after 60 mins; format: ADME; conditions: read-out: Stability
# [9] = Plasma protein binding in rat
# [10] = Tmax in rat at 5 mg/kg, po; format: ADME, organism-based; set-up: dose 5 mg/kg, route oral; conditions: in vivo
# [11] = Half life in rat at 5 mg/kg, po; format: ADME, organism-based; set-up: dose 5 mg/kg, route oral; conditions: in vivo
# [12] = AUC (0 to infinity) in rat at 5 mg/kg, po; format: ADME, organism-based; set-up: time infinity, dose 5 mg/kg, route oral; conditions: plasma
# Sequence of Tyrosine-protein kinase JAK2 (O60674 whole entry): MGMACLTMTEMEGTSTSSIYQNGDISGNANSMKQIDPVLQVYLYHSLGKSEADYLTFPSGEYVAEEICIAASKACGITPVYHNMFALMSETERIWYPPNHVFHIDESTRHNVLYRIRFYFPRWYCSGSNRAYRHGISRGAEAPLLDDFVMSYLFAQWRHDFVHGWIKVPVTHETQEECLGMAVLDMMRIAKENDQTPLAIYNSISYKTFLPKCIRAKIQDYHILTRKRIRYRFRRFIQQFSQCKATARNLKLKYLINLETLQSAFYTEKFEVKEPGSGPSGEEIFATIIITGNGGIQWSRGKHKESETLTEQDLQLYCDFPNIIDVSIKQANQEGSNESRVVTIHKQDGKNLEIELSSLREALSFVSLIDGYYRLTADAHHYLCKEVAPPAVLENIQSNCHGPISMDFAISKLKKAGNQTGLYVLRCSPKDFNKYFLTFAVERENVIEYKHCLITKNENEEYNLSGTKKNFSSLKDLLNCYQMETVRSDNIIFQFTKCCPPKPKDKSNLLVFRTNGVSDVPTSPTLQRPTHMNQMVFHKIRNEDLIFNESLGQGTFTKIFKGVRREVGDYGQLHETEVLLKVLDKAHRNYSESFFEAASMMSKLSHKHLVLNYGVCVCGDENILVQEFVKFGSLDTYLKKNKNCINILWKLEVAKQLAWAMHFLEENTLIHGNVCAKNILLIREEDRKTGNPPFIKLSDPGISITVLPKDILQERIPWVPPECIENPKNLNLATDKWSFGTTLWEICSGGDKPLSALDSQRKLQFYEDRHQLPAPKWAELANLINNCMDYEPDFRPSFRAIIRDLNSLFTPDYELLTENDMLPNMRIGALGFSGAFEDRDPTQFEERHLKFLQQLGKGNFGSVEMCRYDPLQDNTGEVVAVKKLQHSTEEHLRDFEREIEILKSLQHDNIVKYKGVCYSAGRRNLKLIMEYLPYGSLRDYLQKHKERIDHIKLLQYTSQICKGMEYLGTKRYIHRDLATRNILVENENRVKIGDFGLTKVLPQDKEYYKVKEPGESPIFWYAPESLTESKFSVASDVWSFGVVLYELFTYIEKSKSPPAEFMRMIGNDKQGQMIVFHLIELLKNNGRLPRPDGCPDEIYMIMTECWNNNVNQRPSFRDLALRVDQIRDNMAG
# T1 sequence (P23458 whole entry): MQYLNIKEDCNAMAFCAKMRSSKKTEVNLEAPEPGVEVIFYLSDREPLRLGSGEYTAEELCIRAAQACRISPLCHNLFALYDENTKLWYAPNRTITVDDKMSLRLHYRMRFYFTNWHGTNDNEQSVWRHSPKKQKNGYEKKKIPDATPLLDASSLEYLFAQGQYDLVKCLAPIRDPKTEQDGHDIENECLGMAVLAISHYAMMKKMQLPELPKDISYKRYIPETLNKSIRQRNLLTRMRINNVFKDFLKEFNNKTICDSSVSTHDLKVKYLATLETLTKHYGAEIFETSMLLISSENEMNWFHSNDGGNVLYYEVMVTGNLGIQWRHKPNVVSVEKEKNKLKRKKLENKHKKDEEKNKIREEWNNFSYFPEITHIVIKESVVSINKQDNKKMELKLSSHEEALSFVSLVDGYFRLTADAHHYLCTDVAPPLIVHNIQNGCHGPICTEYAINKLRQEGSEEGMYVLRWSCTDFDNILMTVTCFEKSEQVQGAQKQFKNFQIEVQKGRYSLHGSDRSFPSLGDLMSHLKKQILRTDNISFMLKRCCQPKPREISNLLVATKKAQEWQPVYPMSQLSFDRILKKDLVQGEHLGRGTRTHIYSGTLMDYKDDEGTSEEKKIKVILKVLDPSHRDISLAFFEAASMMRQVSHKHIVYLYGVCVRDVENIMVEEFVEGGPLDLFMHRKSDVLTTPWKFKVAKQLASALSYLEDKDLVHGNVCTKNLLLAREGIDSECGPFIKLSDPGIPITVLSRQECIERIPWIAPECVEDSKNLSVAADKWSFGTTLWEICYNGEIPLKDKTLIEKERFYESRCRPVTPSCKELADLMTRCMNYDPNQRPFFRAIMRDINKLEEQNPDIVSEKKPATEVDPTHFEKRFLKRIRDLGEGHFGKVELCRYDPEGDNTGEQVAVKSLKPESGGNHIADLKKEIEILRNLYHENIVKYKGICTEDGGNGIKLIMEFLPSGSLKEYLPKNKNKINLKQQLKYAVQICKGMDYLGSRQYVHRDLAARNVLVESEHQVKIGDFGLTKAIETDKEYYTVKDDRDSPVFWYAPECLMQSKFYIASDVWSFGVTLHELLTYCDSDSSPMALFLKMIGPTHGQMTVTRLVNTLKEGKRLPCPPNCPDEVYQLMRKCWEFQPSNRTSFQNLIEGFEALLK
pIC50 [1],Ratio IC50 (Homo sapiens [2]),Ratio IC50 (Homo sapiens [3]),Ratio IC50 (Homo sapiens [5]),SMILES,further results
7.39,2.1,8,9.6,O=C(Nc1nc2cccc(-c3ccc(CNC4CCS(=O)(=O)C4)cc3)n2n1)C1CC1 (configuration not stated),pIC50 [4]: 5.21; solubility kinetic [6]: > 85 µg/mL; pIC50 [7]: < 4.52; remaining at 1 h [8]: 85%
9.22,5.3,21,66,O=C(NCCc1ccn(-c2ccccc2)n1)c1ccc(-c2cccc3nc(NC(=O)C4CC4)nn23)cc1,solubility kinetic [6]: 4 µg/mL; fraction unbound [9]: 0.01
6.74,2.3,7.1,4.1,O=C(Nc1nc2cccc(-c3ccccc3)n2n1)C1CC1,
5.59,0.7,1.5,> 1.6,O=C(Nc1nc2cccc(-c3cccc4ncccc34)n2n1)C1CC1,
< 5.00,,,,COc1ccc(-c2cccc3nc(-c4cccnc4)nn23)cc1,
6.85,1.1,6.7,2.4,O=C(Nc1nc2cccc(-c3cccc(Cl)c3)n2n1)C1CC1,
8.08,1.7,,,O=C(Nc1nc2cccc(-c3ccc(Cc4ccc(O)c(CO)c4)cc3)n2n1)C1CC1,solubility kinetic [6]: 28 µg/mL
< 5.00,,,,COc1ccc(-c2cccc3nc(NC(=O)C4(C)CC4)nn23)cc1,
8.55,0.9,,,COc1ccc(-c2cccc3nc(Nc4ccc(NC(C)=O)cc4)nn23)cc1,
6.83,7.5,,,N#Cc1ccc(OCC2CN(c3ccc(-c4cccc5nc(NC(=O)C6CC6)nn45)cc3)C2)cc1,
6.99,1,3,18,O=C(Nc1nc2cccc(-c3cccc(OCc4ccccc4)c3)n2n1)C1CC1,
< 5.00,,,,COc1ccc(-c2cccc3nc(NCC4CC4)nn23)cc1,
6.01,2.1,> 4.1,> 4.1,COc1ncc(-c2cccc3nc(NC(=O)C4CC4)nn23)cn1,
5.70,0.5,,,CCC(=O)Nc1nc2cccc(-c3ccc(OC)cc3)n2n1,
7.17,2.2,,,CCOc1ccc(-c2cccn3nc(NC(=O)C4CC4)nc23)cc1,
7.57,2,,,CCOc1ccc(-c2cccc3nc(NC(=O)C4CC4)nn23)cc1,
6.43,1.5,2,2.8,COc1ccccc1-c1cccc2nc(NC(=O)C3CC3)nn12,
< 5.00,,,,COc1ccc(-c2cccc3nc(N4CCCCC4)nn23)cc1,
5.51,1,,,CCOc1ccc(-c2cncc3nc(NC(=O)C4CC4)nn23)cc1,
< 5.00,,,,COc1ccc(-c2cccc3nc(N(C)C)nn23)cc1,
5.52,> 1,,,CCOc1ccc(-c2c(OC)ccc3nc(NC(=O)C4CC4)nn23)cc1,
< 5.00,,,,CC(C)(C)OCc1ccccc1-c1cccc2nc(NC(=O)C3CC3)nn12,

# Continued, compound first:
SMILES,pIC50 [1],Ratio IC50 (Homo sapiens [2]),Ratio IC50 (Homo sapiens [3]),Ratio IC50 (Homo sapiens [5]),further results
CNC(=O)Nc1nc2cccc(-c3ccc(OC)cc3)n2n1,6.38,0.7,,,
COc1ccc(-c2cccc3nc(NS(=O)(=O)C4CC4)nn23)cc1,5.24,,,,
N#CCc1ccccc1NCc1ccc(-c2cccc3nc(NC(=O)C4CC4)nn23)cc1,8.85,11.4,26,9,solubility kinetic [6]: 9.4 µg/mL; fraction unbound [9]: 0.01
COc1ccc(-c2cccc3nc(NC(=O)c4ccccc4)nn23)cc1,< 5.00,,,,
COc1ccc(-c2cccc3nc(N(C)C(=O)C4CC4)nn23)cc1,< 5.00,,,,
COc1ccc(-c2cccc3nc(NC(=O)C4CC4)nn23)cn1,6.26,1.5,4.4,6.2,
O=C(Nc1nc2cccc(-c3ccc(Cl)cc3)n2n1)C1CC1,6.81,3.1,7.4,28.2,
O=C(Nc1nc2cccc(-c3cn[nH]c3)n2n1)C1CC1,5.87,1.1,2.1,> 3,
O=C(Nc1nc2cccc(-c3ccc(CN4CCC(F)(F)CC4)cc3)n2n1)C1CC1,7.57,1.1,8.7,3.2,pIC50 [4]: 5.56; Tmax [10]: 15 min; half-life [11]: 55.2 min; AUC(0-inf) [12]: 690 ng·h/mL; solubility kinetic [6]: 27 µg/mL; pIC50 [7]: < 5.00; fraction unbound [9]: 0.3; remaining at 1 h [8]: 26%
COc1ccc(-c2cccc3nc(NC(=O)C(C)C)nn23)cc1,< 5.00,,,,
O=C(Nc1nc2cccc(-c3ccc(CNC(=O)C(F)(F)F)cc3)n2n1)C1CC1,7.80,2.6,9.5,6.2,pIC50 [4]: 5.35; solubility kinetic [6]: > 80 µg/mL; pIC50 [7]: < 4.52; fraction unbound [9]: 0.17; remaining at 1 h [8]: 80%
O=C(Nc1nc2nccc(-c3ccccc3)n2n1)C1CC1,,,,,IC50 [1]: Not Active
COc1ccc(-c2cccc3nc(N)nn23)cc1,5.51,0.6,,,
O=C(Nc1nc2cccc(-c3ccc(NS(=O)(=O)C4CC4)cc3)n2n1)C1CC1,,,,,fraction unbound [9]: 0.1
CCOc1ccc(-c2nccc3nc(NC(=O)C4CC4)nn23)cc1,6.38,1.5,,,
COc1ccc(-c2cc(C(F)(F)F)cn3nc(NC(=O)C4CC4)nc23)cc1,,,,,IC50 [1]: Not Active
CN1CCN(Cc2ccc(-c3cccc4nc(NC(=O)C5CC5)nn34)cc2)CC1,< 5.40,,,,
C[C@@H]1CCN(C(=O)CC#N)C[C@@H]1N(C)c1ncnc2[nH]ccc12 [TOFACITINIB],,,,,remaining at 1 h [8]: 27%
COc1ccc(-c2cccc3nc(NC(C)=O)nn23)cc1,< 5.40,,,,
Nc1nc2cccc(-c3ccc(CN4CCS(=O)(=O)CC4)cc3)n2n1,,,,,pIC50 [4]: 4.92; pIC50 [7]: < 4.00
COCc1cccc(-c2cccc3nc(NC(=O)C4CC4)nn23)c1,6.24,0.9,3.8,2.8,
